Measured values reported in patent EP4736876A1, “DRUG COMBINATION CONTAINING PD-L1 SMALL MOLECULE INHIBITOR AND USE THEREOF” (Beijing Maxinovel Pharmaceuticals Co., Ltd., priority 2023, dated 2025).

Columns and labels:
4T1 hPD-L1 cells [1] = assay: Pharmacodynamic study on mouse breast cancer 4T1 hPD-L1 model, subcutaneous (Example 1, capecitabine combination); type: in vivo, BALB/c mice; details: Compound of Formula I 120 mg/kg p.o. BID, Capecitabine 100 mg/kg p.o. QD; for TGI (%)/Day 21: Day 21 vs vehicle control; for Tumor Volume at the Beginning of the Experiment/Day 0: baseline on day of grouping
Experimental: Experimental animals: 100 BALB/c mice, female, 6 to 8 weeks old, weighing 18 to 21 g, purchased from Shanghai Jihui Laboratory Animal Care Co., Ltd. (SCXK (Shanghai) 2020-0009; Certificate No.: 20220009001922).
Drugs: Compound of Formula I [drawing 4] manufacturer: Pharmaron (Tianjin) Process Development and Manufacturing Co., Ltd., batch number: TJ-MAX-10181-A-2; Capecitabine, manufacturer: Shanghai Yuanye Bio-Technology Co., Ltd., batch number: J10J12L137020.
(§1) Murine 4T1 hPD-L1 cells were grown adherently in vitro under culture conditions of RPMI-1640 medium supplemented with 10% heat-inactivated fetal bovine serum and 4 µg/mL Blasticidin (Beyotime/ST018-1mL), at 37°C with 5% CO2. Cells were passaged 2 to 3 times per week. When cells were in the exponential growth phase, the cells were harvested, counted, and inoculated subcutaneously on the right dorsal side of BALB/c mice.
100 µL of 1 × 10^6 4T1 hPD-L1 cell suspension was inoculated subcutaneously on the right dorsal side of BALB/c mice. On the 6th day after inoculation, suitable animals were selected based on tumor volume and body weight, and stratified randomization was used to divide them into 4 groups, with 10 mice per group. Administration began on the day of grouping. Table 1: Animal Experiment Grouping and Administration Regimen
(§2) The experimental indicators were examined to determine whether tumor growth could be inhibited, delayed, or cured. Tumors were measured three times per week using a digital vernier caliper. The tumor volume was calculated using the formula: V = 0.5a × b^2, where a and b represent the long and short diameters of the tumor, respectively. The tumor growth inhibition efficacy of compounds was calculated as: TGI (%) = [1 - (TVi - TV0) / (TVVi - TVV0)] × 100% (where TV0 represents the mean volume of the treatment group on day 0, TVV0 represents the mean volume of the control group on day 0; TVi represents the mean volume of the treatment group on day i, and TVVi represents the mean volume of the control group on day i).
(§3) If the animals' health condition continued to deteriorate, or the tumor volume exceeded 2,000 mm^3, or severe illness or pain occurred, euthanasia was required. In the following circumstances, the veterinarian was notified and euthanasia was performed: • (1) Significant emaciation with body weight loss exceeding 20%; • (2) Inability to freely access food and water; • (3) The experiment was terminated when the average tumor volume in the control group reached 2000 mm^3.
(§4) GraphPad Prism 8.0 software was used for plotting. Changes in tumor volume in mice were analyzed by Two-way ANOVA and compared with the vehicle control group using Dunnett's method, with P < 0.05 considered statistically significant.

4T1 hPD-L1 cells [2] = assay: Pharmacodynamic study on mouse breast cancer 4T1 hPD-L1 model, subcutaneous (Example 2, celecoxib combination); type: in vivo, BALB/c mice; details: Compound of Formula I 120 mg/kg p.o. BID, Celecoxib 60 mg/kg p.o. BID; for TGI (%)/Day 21: Day 21 vs vehicle control; for Tumor Volume at the End of the Experiment/Day 21 / Tumor Volume at the Beginning of the Experiment/Day 0 / Body Weight of Animals at the Beginning of the Experiment / Body Weight of Animals at the End of the Experiment / Relative Body Weight Change of Animals at the End of the Experiment: mean; for Tumor Volume at the End of the Experiment/Day 21 / Tumor Volume at the Beginning of the Experiment/Day 0: n=10; for Tumor Volume at the Beginning of the Experiment/Day 0: baseline on day of grouping; for Body Weight of Animals at the Beginning of the Experiment: baseline
Experimental: Experimental animals: 100 BALB/c mice, female, 6 to 8 weeks old, weighing 18 to 21 g, purchased from: Shanghai Jihui Laboratory Animal Care Co., Ltd. (SCXK (Shanghai) 2020-0009; Certificate No.: 20220009001922).
Drugs: Compound of Formula I, manufacturer: Pharmaron (Tianjin) Process Development and Manufacturing Co., Ltd., batch number: TJ-MAX-10181-A-2; Celecoxib, manufacturer: Shanghai Yuanye Bio-Technology Co., Ltd., batch number: D11A6S2152.
as §1
100 µL of 1 × 10^6 4T1 hPD-L1 cell suspension was inoculated subcutaneously on the right dorsal side of BALB/c mice. On the seventh day after inoculation, stratified randomization was used to divide into 4 groups (10 mice per group) based on tumor volume and body weight. Administration began on the day of grouping. Table 5: Animal Experiment Grouping and Administration Regimen
as §2, §3, §4

4T1 cells = assay: Orthotopic 4T1 breast cancer model with tumor resection, survival study (Example 3, paclitaxel combination); type: in vivo, BALB/c mice; details: day 38; Compound of Formula I 60 mg/kg PO BID; Paclitaxel 6 mg/kg IP Q2D; orthotopic tumors resected 13 days after inoculation; n=10
Experimental: Experimental animals: 50 BALB/c mice, female, 6 to 8 weeks old, weighing 18 to 20 g. Zhejiang Vital River Laboratory Animal Technology Co., Ltd., Tongxiang Branch (SCKX (Zhejiang) 2021-0006); Certificate No.: 20220728Abzz0600000694.
Drugs: Compound of Formula I, manufacturer: Pharmaron (Tianjin) Process Development and Manufacturing Co., Ltd., batch number: TJ-MAX-10181-A-2; Paclitaxel (6 mg/mL), manufacturer: Corden Pharma Latina S.P.A., batch number: 2D07013.
as §1, with “4T1” for “4T1 hPD-L1”, “serum” for “serum and 4 µg/mL Blasticidin (Beyotime/ST018-1mL),”, “When the” for “When”, “into the fourth fat pad” for “subcutaneously”, “left abdomen” for “right dorsal side”
50 µL of 1 × 10^5 4T1 cell suspension was inoculated into the fourth fat pad on the left abdomen of BALB/c mice. […]
The experimental indicators were examined to determine whether tumor growth could be inhibited, delayed, or cured. Tumors were measured three times per week using a digital vernier caliper. The tumor volume was calculated using the formula: V = 0.5a × b^2, where a and b represent the long and short diameters of the tumor, respectively. […]

GL-261-luc cells = assay: Mouse glioma GL-261-luc brain orthotopic xenograft tumor model, pharmacodynamics and survival (Example 4, temozolomide combination); type: in vivo, C57 BL/6 mice; details: Compound of Formula I 120 mg/kg PO BID, TMZ 7.5 mg/kg IP BIW; for TGI (%)/Day 14: Day 14, based on fluorescence signal intensity vs vehicle control; for Total Fluorescence Intensity at the Beginning of the Experiment/Day 0: baseline Day 0; for mice showed > 10% body weight loss: by day 14 of administration, 9 mice per group; for Body Weight of Animals at the End of the Experiment / Relative Body Weight Change of Animals at the End of the Experiment / Body Weight of Animals at the Beginning of the Experiment: mean, n=9; for Body Weight of Animals at the Beginning of the Experiment: baseline; for increase in life span (ILS): median survival vs vehicle control, end of experiment
Experimental: Experimental animals: 57 C57 BL/6 mice, female, 6 to 8 weeks old, weighing 16 to 20 g, purchased from Shanghai Jihui Laboratory Animal Care Co., Ltd.
Drugs: Compound of Formula I [drawing 5] manufacturer: Pharmaron (Tianjin) Process Development and Manufacturing Co., Ltd., batch number: TJ-MAX-10181-A-2; TMZ (Temozolomide), manufacturer: Shanghai Aladdin Biochemical Technology Co., Ltd., batch number: J2227749.
Murine GL-261-luc cells were grown adherently in vitro under culture conditions of DMEM medium supplemented with 10% heat-inactivated fetal bovine serum and 0.6 mg/mL G418 (stock concentration: 100 mg/mL), at 37°C with 5% CO2. Cells were passaged 2 to 3 times per week. When cells were in the exponential growth phase, the cells were harvested, counted, and inoculated into the right caudate nucleus of C57 BL/6 mice.
GL-261-luc cells in logarithmic growth phase were harvested at full confluence with viability guaranteed 90% or more. Mice were anesthetized via intraperitoneal injection of 41.6 mg/kg Zoletil according to body weight. 1 × 10^5/2 µL/mouse cells was orthotopically inoculated into the right caudate nucleus of each mouse, and the skin was sutured with 4/0 suture. After recovery, mice were returned to their cages. 4 days after inoculation, mice were imaged and grouped using the IVIS Lumina XR small animal imager. Fluorescence signal intensity was used for stratified randomization into 4 groups (9 mice per group). Administration began on the day of grouping, with daily weight monitoring and observation of mouse growth status. Mice were imaged twice weekly. Table 11: Animal Experiment Grouping and Administration Regimen
The experimental indicators were examined to determine whether tumor growth could be inhibited, delayed, or cured. According to the experimental design, tumor growth was monitored by imaging mice using the IVIS Lumina XR small animal imager. The tumor growth inhibition efficacy of the compounds was evaluated using TGI (Tumor Growth Inhibition), where TGI (%) = [1 - (TFtreatment-Dn - TFtreatment-D0) / (TFcontrol-Dn - TFcontrol-D0)] × 100% (where TFtreatment-D0 represents the fluorescence signal intensity of the treatment group on day 0, TFcontrol-D0 represents the fluorescence signal intensity of the control group on day 0; TFtreatment-Dn represents the fluorescence signal intensity of the treatment group on day n, and TFcontrol-Dn represents the fluorescence signal intensity of the control group on day n). The calculation formula for an increase in life span (ILS) is: ILS = (MSTTreatment - MSTControl) / MSTControl × 100% (where MSTTreatment is the median survival days for the treatment group, and MSTControl is the median survival days for the control group).
Tumor size was analyzed using the statistical software GraphPad Prism based on fluorescence signal intensity values. Two-way ANOVA was used to compare whether there were significant differences in fluorescence signal intensity between the control group and each treatment group, with p < 0.05 considered statistically significant and p < 0.01 considered highly statistically significant.

| SMILES | TGI (%)/Day 21 (4T1 hPD-L1 cells [1]) [%] | Tumor Volume at the Beginning of the Experiment/Day 0 (4T1 hPD-L1 cells [1]; mean, n=10) [mm^3] | TGI (%)/Day 21 (4T1 hPD-L1 cells [2]) [%] | Tumor Volume at the End of the Experiment/Day 21 (4T1 hPD-L1 cells [2]) [mm^3] | Tumor Volume at the Beginning of the Experiment/Day 0 (4T1 hPD-L1 cells [2]) [mm^3] | Body Weight of Animals at the Beginning of the Experiment (4T1 hPD-L1 cells [2]) [g] | Body Weight of Animals at the End of the Experiment (4T1 hPD-L1 cells [2]) [g] | Relative Body Weight Change of Animals at the End of the Experiment (4T1 hPD-L1 cells [2]) [%] | survival rate of mice (4T1 cells) [%] | TGI (%)/Day 14 (GL-261-luc cells) [%] | Total Fluorescence Intensity at the End of the Experiment/Day 14 (GL-261-luc cells) [E + 09 p/s] | Total Fluorescence Intensity at the Beginning of the Experiment/Day 0 (GL-261-luc cells) [E + 07 p/s] | mice showed > 10% body weight loss (GL-261-luc cells) [mice] | Body Weight of Animals at the End of the Experiment (GL-261-luc cells) [g] | Relative Body Weight Change of Animals at the End of the Experiment (GL-261-luc cells) [%] | Body Weight of Animals at the Beginning of the Experiment (GL-261-luc cells) [g] | increase in life span (ILS) (GL-261-luc cells) [%] | Tumor Volume at the End of the Experiment/Day 21 (4T1 hPD-L1 cells [1]; mean, n=10, Day 21) [mm^3] | Body Weight of Animals at the Beginning of the Experiment (4T1 hPD-L1 cells [1]; mean, baseline) [g] |
| --- | --- | --- | --- | --- | --- | --- | --- | --- | --- | --- | --- | --- | --- | --- | --- | --- | --- | --- | --- |
| CCCCCOC(=O)Nc1nc(=O)n([C@@H]2O[C@H](C)[C@@H](O)[C@H]2O)cc1F [Capecitabine] | 56.16 | 125.17 | – | – | – | – | – | – | – | – | – | – | – | – | – | – | – | – | – |
| Cc1ccc(-c2cc(C(F)(F)F)nn2-c2ccc(S(N)(=O)=O)cc2)cc1 [Celecoxib] | – | – | 83.90 | 341.70 | 159.34 | 22.68 | 23.68 | 4.48 | – | – | – | – | – | – | – | – | – | – | – |
| Cc1c(/C=C/c2cc(CN[C@@](C)(CO)C(=O)O)ccc2C(F)(F)F)cccc1-c1ccccc1 [Compound of Formula I] | 41.88 | 125.52 | 32.78 | 921.91 | 160.33 | 23.04 | 24.85 | 8.01 | 0 | 40.52 | 1.18 | 2.75 | 2 | 18.29 | -3.08 | 18.89 | 20 | 1103.30 | 24.20 |
| CC(=O)O[C@H]1C(=O)[C@@]2(C)[C@H]([C@H](OC(=O)c3ccccc3)[C@]3(O)C[C@H](OC(=O)[C@H](O)[C@@H](NC(=O)c4ccccc4)c4ccccc4)C(C)=C1C3(C)C)[C@]1(OC(C)=O)CO[C@@H]1C[C@@H]2O [Paclitaxel] | – | – | – | – | – | – | – | – | 10 | – | – | – | – | – | – | – | – | – | – |
| Cn1nnc2c(C(N)=O)ncn2c1=O [TMZ, Temozolomide] | – | – | – | – | – | – | – | – | – | 35.51 | 1.27 | 2.76 | 2 | 19.40 | -0.63 | 19.51 | 25 | – | – |
